In US20080075688A1, “Use of non-digestible polymeric foams to sequester ingested materials thereby inhibiting their absorption by the body” (The Procter & Gamble Company, priority 2003, published 2008):

Experiments:
rats [1] = experiment: Fat excretion in rats on a high-fat diet (30% of calories as corn oil) for 9 days with XENICAL, Example 4; format: in vivo, rat; conditions: 400 ppm XENICAL without or with 0.5% HIPE foam in diet
Method: (§1) Three groups of rats were matched by weight and receive a high-fat diet (30% of calories as corn oil) for 9 days. One of the groups also received 400 ppm XENICAL® as part of the diet. The third group received both 400 ppm XENICAL® and 0.5% ground particulate HIPE foam from Example 1, Sample 1 as part of the diet. Total diet intake was measured throughout the study, and fecal output was measured in tail cups fitted to the animals during the last two days of the study. The pooled two-day collection of feces from each animal was analyzed for fat content according to AOAC method 954.04, published by AOAC International, Gaithersburg, Md.

rats [2] = experiment: Observer rating of oil on the fur of rats, Example 4; format: in vivo, rat
Method: as §1, with “Md. On days 5 and 7 of the study, the appearance of each animal was judged by two observers unaware of the dietary treatment of the animals. These observers assigned numerical values that increased with the amount of oil seen on the fur. A value of 1 was used to describe animals with no oil apparent on their fur. A value of 5 was used to describe animals with more than 90% of their fur coated with oil. Values of 2, 3, or 4, as appropriate, were assigned to animals with intermediate amounts of oil on the fur.” for “Md.”

Average Rating (oil on fur) (rats [2]; days 5 and 7, two blinded observers, scale 1 (no oil apparent on fur) to 5 (more than 90% of fur coated), control 1.03): 4.41
Structure (SMILES): CCCCCCCCCCC[C@@H](C[C@@H]1OC(=O)[C@H]1CCCCCC)OC(=O)[C@H](CC(C)C)NC=O [XENICAL ®, tetrahydrolipstatin]
Fat excretion versus the control group (rats [1]): significantly more fat than the control group
Mean Total 48 hour Lipid Excretion (rats [1]; corn oil diet 9 days, feces of last two days, control 0.16): 2.6 g
Excreted Fat (as % Ingested Fat) (rats [1]; corn oil diet 9 days, feces of last two days, control 3.9): 59.1 % Ingested Fat
Oil on fur rating compared with the other groups (rats [2]; 400 ppm XENICAL only versus control and XENICAL + foam): significantly different relative to the other two groups
